# Results published in patent US20070003483A1, “Method of evaluating organ function” (Oxygenix Co., Ltd., priority 2003, published 2007).
# Experiments:
# Mrp2 [1] = test: Immunohistochemical analysis of subcellular Mrp2 distribution in 8-hr cold ischemia-reperfused grafts; design: species or system rat; settings: 8-hr cold ischemia and 60-min reperfusion
# From the text: To evaluate Mrp2 in hepatocytes of the grafts, the liver samples were fixed, sliced, and stained with a monoclonal antibody M2III-6, according to previous study (32). The antigen on the sections was visualized by phycoerythrin-conjugated anti-mouse IgG and observed through laser confocal microfluorography at 488 nm as described elsewhere (20, 30). In order to examine BC localization and hepatocellular internalization of Mrp2, the sections were double immunostained with a monoclonal antibody against ZO-1, another marker expressed in hepatocellular junction (33). To determine changes in the protein distribution in a semi-quantitative manner, single-stained microfluorographs of Mrp2 were converted as monochrome 8-bit images (14). The gray levels (1-256) were measured at both cytoplasmic and canalicular domains in a single hepatocytes. At least 5 different sites for each domain were chosen in a single cell to calculate the relative values of cytoplasmic intensities versus the corresponding canalicular intensities. Such a measurement was carried out in 40-60 hepatocytes in 4 different grafts to construct histograms of the percentage cytoplasmic intensities of Mrp2-associated immunoreactivities, being defined as % I-Mrp2(cyt/bc). The elevation of this index represented an increase in the Mtp2 internalization. […]
# Mrp2 [2] = molecular target: T1, Mrp2 (Rattus norvegicus, UniProt Q63120); test: Biliary excretion rates of carboxyfluorescein (T1/2 of dye exclusion) in whole perfused liver grafts; settings: normoperfused grafts in the presence of 1.5 mM probenecid
# T1 construct: Livers of these rats were perfused ex vivo with the oxygenated Krebs-Henseleit buffer; from tissue; host or cells: whole rat liver grafts (Wistar), perfused ex vivo
# Experimental: (§1) Male Wistar rats (220-260 g, CLEA Japan, Tokyo) and Eisai hyperbilirubinemia rats (EHBR) (220-260 g, Sankyo Inc., Tokyo) that had been allowed free access to laboratory chow and tap water were fasted 24 hrs before experiments. Livers of these rats were perfused ex vivo with the oxygenated Krebs-Henseleit buffer as the base-line perfusate (17, 18), and stored in the University of Wisconsin solution at 4° C. for desired lengths of time (14). When necessary, rats were pretreated with an intravenous injection of liposome-encapsulated dichloromethylene diphosphonate (LDD) at 24 hrs prior to preparation of the ex-vivo liver perfusion for the cold storage according to our previous studies (14, 19). […]
# Carboxyfluorescein (CF) is an organic anion which excreted from various cells through Mrp2 (26, 27). […] Bile samples collected from these preparations were deep-frozen until the fluorescence measurements were carried out using a 96-well multi-channel fluorescence spectrophotometer. The measurements were performed under epi-illumination at 440 nm, the isosbestic wavelength of the dye which yields fluorescence at 510 nm without interference with pH values of the samples (26). […] With this assumption, biliary CF lifetimes were determined as the T1/2 of the exponential decay.
# Mrp2 [3] = molecular target: T1, Mrp2; test: In situ visualization of hepatocellular CF exclusion by intravital laser confocal microfluorography in perfused liver grafts; settings: grafts perfused with 1.5 mM probenecid
# Experimental: as §1
# Liver grafts loaded with CF using the aforementioned protocols were observed through intravital laser confocal microfluorography as described previously (14, 20, 30). […] To calibrate the fluorescence intensities, known concentrations of CF were prepared in vitro and the images were captured under the identical optical parameters of the camera. Gray levels in hepatocytes were measured by variable square window (2×2 μm^2) using digital image processor (18, 31). At least 10 different hepatocytes in the microscopic fields of interests were analyzed in a single experiment.
# T1 sequence (Q63120 whole entry, the tested form may be a part): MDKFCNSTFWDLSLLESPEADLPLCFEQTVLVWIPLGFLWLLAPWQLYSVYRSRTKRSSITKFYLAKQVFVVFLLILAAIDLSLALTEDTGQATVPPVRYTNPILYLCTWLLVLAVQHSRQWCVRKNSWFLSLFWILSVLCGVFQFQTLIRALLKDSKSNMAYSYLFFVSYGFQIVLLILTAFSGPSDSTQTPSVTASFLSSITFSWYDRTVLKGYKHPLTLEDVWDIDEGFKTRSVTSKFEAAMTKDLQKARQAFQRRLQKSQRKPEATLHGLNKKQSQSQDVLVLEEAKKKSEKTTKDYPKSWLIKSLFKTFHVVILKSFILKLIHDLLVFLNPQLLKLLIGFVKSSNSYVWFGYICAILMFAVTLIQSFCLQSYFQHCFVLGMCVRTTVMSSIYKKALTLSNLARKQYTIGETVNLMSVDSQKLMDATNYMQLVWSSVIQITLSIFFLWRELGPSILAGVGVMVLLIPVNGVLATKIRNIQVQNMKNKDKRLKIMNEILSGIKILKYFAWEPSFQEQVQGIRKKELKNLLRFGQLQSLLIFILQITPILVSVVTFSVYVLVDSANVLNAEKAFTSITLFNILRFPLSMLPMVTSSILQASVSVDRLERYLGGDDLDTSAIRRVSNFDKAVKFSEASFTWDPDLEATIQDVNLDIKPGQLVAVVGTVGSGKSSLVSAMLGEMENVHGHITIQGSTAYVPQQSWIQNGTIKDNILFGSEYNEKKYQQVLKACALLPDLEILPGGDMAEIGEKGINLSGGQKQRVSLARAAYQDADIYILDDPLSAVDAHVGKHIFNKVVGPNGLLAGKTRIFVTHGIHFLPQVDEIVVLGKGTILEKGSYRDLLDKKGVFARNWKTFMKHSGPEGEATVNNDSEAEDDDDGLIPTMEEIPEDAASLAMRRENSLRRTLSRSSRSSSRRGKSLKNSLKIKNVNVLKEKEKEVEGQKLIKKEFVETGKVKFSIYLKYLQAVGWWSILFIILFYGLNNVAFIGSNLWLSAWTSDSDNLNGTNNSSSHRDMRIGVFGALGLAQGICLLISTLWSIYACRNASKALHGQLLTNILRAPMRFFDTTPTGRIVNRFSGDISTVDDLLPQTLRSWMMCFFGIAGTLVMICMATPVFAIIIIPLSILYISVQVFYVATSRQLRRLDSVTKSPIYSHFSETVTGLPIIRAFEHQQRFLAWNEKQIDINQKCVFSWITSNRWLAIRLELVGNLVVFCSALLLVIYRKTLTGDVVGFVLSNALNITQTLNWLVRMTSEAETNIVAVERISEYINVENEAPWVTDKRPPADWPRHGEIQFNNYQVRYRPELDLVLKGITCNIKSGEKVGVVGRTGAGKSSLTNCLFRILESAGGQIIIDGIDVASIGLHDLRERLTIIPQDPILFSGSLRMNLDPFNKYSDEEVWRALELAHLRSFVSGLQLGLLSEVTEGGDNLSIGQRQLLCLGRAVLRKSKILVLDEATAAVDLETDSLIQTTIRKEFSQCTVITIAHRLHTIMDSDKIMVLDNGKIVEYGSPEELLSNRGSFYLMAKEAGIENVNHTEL
transient increase of CF concentrations in bile (Mrp2 [2]),decay of hepatocellular CF fluorescence (Mrp2 transport) (Mrp2 [3]),Structure (SMILES),"Mrp2 internalization (reduced BC localization, elevated cytoplasmic intensity) (Mrp2 [1])"
–,–,O=C(O)/C=C/c1ccc(Cn2ccnc2)cc1 [OKY-046],attenuated
not observed,substantially slowed,CCCN(CCC)S(=O)(=O)c1ccc(C(=O)O)cc1 [probenecid],–
